Data as given in patent publication US11319329B2, “Inhibitors of Bruton's tyrosine kinase and methods of their use” (JANSSEN PHARMACEUTICA NV, priority 2015, dated 2022).

Biological target: unphosphorylated-BTK kinase domain (UP-BTK), GST-tagged human BTK (389-659aa) (Homo sapiens (Human), UniProt Q06187)
Assay: BTK kinase Lanthascreen binding assay
Conditions: for BTK_I_binding pIC50: negative log of the IC50 in molar, 60 minutes incubation
Description: BTK Kinase Lanthascreen Binding Assay:
A BTK kinase lanthascreen binding assay monitors compound binding to unphosphorylated-BTK kinase domain (UP-BTK), by competing with a fluorescent labeled tracer. […] Data were analyzed using Xlfit™ version 5.3 from ID Business Solutions (Guildford), Microsoft Excel add-in. pIC50 refers to the negative log of the IC50 in molar

[1] = unphosphorylated BTK kinase domain, Lanthascreen

Sequence of unphosphorylated-BTK kinase domain (UP-BTK), GST-tagged human BTK (389-659aa) (Q06187 389-659): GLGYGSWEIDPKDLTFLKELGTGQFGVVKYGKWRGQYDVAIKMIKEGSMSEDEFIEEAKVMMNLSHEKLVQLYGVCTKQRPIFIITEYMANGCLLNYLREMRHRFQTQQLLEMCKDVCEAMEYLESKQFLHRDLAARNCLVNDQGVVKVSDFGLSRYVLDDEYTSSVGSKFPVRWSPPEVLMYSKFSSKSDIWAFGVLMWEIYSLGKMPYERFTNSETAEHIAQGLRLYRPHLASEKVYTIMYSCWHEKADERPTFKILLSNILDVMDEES

Row | SMILES | BTK_I_binding pIC50 (50 nM Tracer 236) | also measured
1 | C=CC(=O)N[C@H]1CCC[C@H]1NC(=O)c1sc2nccc3c2c1NC(=O)N3c1ccc(Oc2cccnc2)cc1 (relative stereo) [Example 300, N-((1R,2S)-2-Acrylamidocyclopentyl)-4-oxo-5-(*S)-(4-(pyridin-3-yloxy)phen)-4,5-dihydro-3H-1-thia-3,5,8-triazaacenaphthylene-2-carboxamide] | 8.27 | 
2 | Cc1cc(Oc2ccccc2)ccc1N1C(=O)Nc2c(C(=O)N[C@@H]3CCC[C@H]3O)sc3nccc1c23 (single isomer, unassigned) [Example 4] |  | BTK_I_binding pIC50 [1]: 7.73
3 | Cc1cc(Oc2ccccc2)ccc1N1C(=O)Nc2c(C(=O)N[C@H]3CC[C@H](O)CC3)sc3nccc1c23 (single isomer, unassigned) [Example 85, N-((1R,4R)-4-Hydroxycyclohexyl)-5-(*S)-(2-methyl-4-phenoxyphenyl)-4-oxo-4,5-dihydro-3H-1-thia-3,5,8-triazaacenaphthylene-2-carboxamide] |  | IC50 (read-out: BTK_I_binding pIC50 (converted)): 0.0214 µM
4 | C=CC(=O)NC1CCCC[C@H]1NC(=O)c1sc2nccc3c2c1NC(=O)N3c1cnc(OCC(C)C)cc1C (single isomer, unassigned) [Example 352, N-((1R,2S)-2-Acrylamidocyclohexyl)-5-(*R)-(6-isobutoxy-4-methylpyridin-3-yl)-4-oxo-4,5-dihydro-3H-1-thia-3,5,8-triazaacenaphthylene-2-carboxamide] | <6 | 
5 | CCC(=O)N[C@H]1CCC[C@H]1NC(=O)c1sc2nccc3c2c1NC(=O)N3c1ccc(Oc2ccccc2)nc1C (single isomer, unassigned) [Example 353, 5-(*S)-(2-Methyl-6-phenoxypyridin-3-yl)-4-oxo-N-((1R,2R)-2-propionamidocyclopentyl)-4,5-dihydro-3H-1-thia-3,5,8-triazaacenaphthylene-2-carboxamide] | <6 | 
6 | C=CC(=O)N[C@H]1CCCC[C@H]1NC(=O)c1sc2nccc3c2c1NC(=O)N3c1cnc(CC(C)C)cc1C (single isomer, unassigned) [Example 357, N-((1R,2S)-2-Acrylamidocyclohexyl)-5-(*S)-(6-isobutyl-4-methylpyridin-3-yl)-4-oxo-4,5-dihydro-3H-1-thia-3,5,8-triazaacenaphthylene-2-carboxamide] | 7.98 | 
7 | Cc1cc(Oc2ccccc2)ccc1N1C(=O)Nc2c(C(=O)N[C@H]3CCCC[C@@H]3NC=O)sc3nccc1c23 [Example 54, N-((1S,2S)-2-Formamidocyclohexyl)-5-(2-methyl-4-phenoxyphenyl)-4-oxo-4,5-dihydro-3H-1-thia-3,5,8-triazaacenaphthylene-2-carboxamide] |  | BTK_I_binding pIC50 [1]: 5.90
